Reference: ChEMBL document CHEMBL4814056, “Discovery of chalcone analogues as novel NLRP3 inflammasome inhibitors with potent anti-inflammation activities” (Eur J Med Chem, 2021)
Calls of active or inactive are those of the source. The rule behind the calls is not given here.

Experiments:
[1] = biological target: NACHT, LRR and PYD domains-containing protein 3 (Mus musculus, UniProt Q8R4B8); test: Inhibition of NLRP3 in mouse J774A.1 cells infected with FLA-ST assessed as inhibition of LPS- induced IL-1beta production by ELISA; type: cell-based, J774.A1
NACHT, LRR and PYD domains-containing protein 3, sequence (Q8R4B8 whole entry, the tested form may be a part): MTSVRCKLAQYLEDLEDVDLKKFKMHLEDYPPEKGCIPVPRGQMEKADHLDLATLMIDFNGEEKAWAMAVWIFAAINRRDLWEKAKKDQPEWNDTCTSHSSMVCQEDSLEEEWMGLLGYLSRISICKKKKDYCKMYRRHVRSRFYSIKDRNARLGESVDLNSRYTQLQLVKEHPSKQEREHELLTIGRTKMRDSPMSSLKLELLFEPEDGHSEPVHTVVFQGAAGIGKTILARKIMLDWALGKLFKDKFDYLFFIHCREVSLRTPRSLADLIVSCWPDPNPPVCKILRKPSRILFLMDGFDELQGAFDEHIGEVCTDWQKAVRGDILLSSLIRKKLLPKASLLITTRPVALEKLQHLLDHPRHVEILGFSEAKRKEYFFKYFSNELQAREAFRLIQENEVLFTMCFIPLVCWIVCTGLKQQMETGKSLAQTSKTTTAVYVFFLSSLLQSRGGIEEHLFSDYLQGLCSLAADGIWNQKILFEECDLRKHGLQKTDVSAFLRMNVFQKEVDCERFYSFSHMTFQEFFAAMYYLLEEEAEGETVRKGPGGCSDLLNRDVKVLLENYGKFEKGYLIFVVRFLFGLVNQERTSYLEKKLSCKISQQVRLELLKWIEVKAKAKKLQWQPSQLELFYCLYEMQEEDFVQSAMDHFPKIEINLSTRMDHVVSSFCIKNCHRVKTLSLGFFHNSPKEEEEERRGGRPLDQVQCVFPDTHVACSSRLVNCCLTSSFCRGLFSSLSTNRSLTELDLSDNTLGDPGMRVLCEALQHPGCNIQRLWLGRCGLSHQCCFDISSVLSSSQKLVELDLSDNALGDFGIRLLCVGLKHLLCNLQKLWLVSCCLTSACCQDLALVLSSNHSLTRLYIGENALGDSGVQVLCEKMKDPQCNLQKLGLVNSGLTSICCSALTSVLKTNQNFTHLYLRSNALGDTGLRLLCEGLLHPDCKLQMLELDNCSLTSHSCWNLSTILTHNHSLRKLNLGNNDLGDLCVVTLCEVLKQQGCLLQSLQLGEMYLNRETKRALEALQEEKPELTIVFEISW

J774.A1 [2] = test: Cytotoxicity against mouse J774A.1 cells assessed as reduction in cell viability at 2 hrs by CellTiter 96 AQueous One solution cell proliferation assay; type: cell-based; settings: j774.a1, 2 h
J774.A1 [3] = test: Cytotoxicity against mouse J774A.1 cells assessed as reduction in cell viability at 24 hrs by CCK8 assay; type: cell-based; settings: j774.a1, 24 h
[4] = Cytotoxicity against human HEK293T cells assessed as reduction in cell viability at 24 hrs by CCK8 assay; type: cell-based, HEK-293T; settings: read-out: TD50
[5] = Selectivity index, ratio of TC50 for cytotoxicity against human HEK293T cells to IC50 for inhibition of NLRP3 in mouse J774A.1 cells
[6] = biological target: NACHT, LRR and PYD domains-containing protein 3 (Mus musculus) (UniProt Q8R4B8); test: Inhibition of NLRP3 inflammasome activation in LPS/nigericin-treated mouse J774A.1 cells assessed as inhibition of LPS and nigericin-induced IL-1beta production pre-treated for 1 hr measured after 1 hr of stimulation by ELISA; settings: J774.A1, dose 1-5 µM, time 2.0 hrs
NACHT, LRR and PYD domains-containing protein 3 (Mus musculus), sequence (Q8R4B8 whole entry, the tested form may be a part): as above

[7] = biological target: NACHT, LRR and PYD domains-containing protein 3 (Mus musculus) (UniProt Q8R4B8); test: Inhibition of NLRP3 inflammasome activation in LPS/nigericin-treated mouse BMDM cells assessed as inhibition of LPS and nigericin-induced IL-1beta production pre-treated for 1 hr measured after 1 hr of stimulation by ELISA; type: cell-based; settings: dose 1-5 µM, time 2.0 hrs
[8] = biological target: NACHT, LRR and PYD domains-containing protein 3 (Mus musculus) (UniProt Q8R4B8); test: Inhibition of NLRP3 inflammasome activation in LPS/nigericin-treated mouse J774A.1 cells assessed as blockade of caspase 1 p20 maturation pre-treated for 1 hr measured after 1 hr of stimulation by Western blot analysis; settings: J774.A1, dose 1-5 µM, time 2.0 hrs
[9] = biological target: NACHT, LRR and PYD domains-containing protein 3 (Mus musculus) (UniProt Q8R4B8); test: Inhibition of NLRP3 inflammasome activation in LPS/nigericin-treated mouse J774A.1 cells assessed as blockade of IL-1beta secretion pre-treated for 1 hr measured after 1 hr of stimulation by Western blot analysis; settings: J774.A1, dose 1-5 µM, time 2.0 hrs
[10] = biological target: NACHT, LRR and PYD domains-containing protein 3 (Mus musculus) (UniProt Q8R4B8); test: Inhibition of NLRP3 inflammasome activation in LPS/nigericin-treated mouse J774A.1 cells assessed as effect on pro-IL-1-beta pre-treated for 1 hr at 1 to 5 uM measured after 1 hr of stimulation by Western blot analysis; settings: J774.A1, dose 1-5 µM, time 2.0 hrs
[11] = biological target: NACHT, LRR and PYD domains-containing protein 3 (Mus musculus) (UniProt Q8R4B8); test: Inhibition of NLRP3 inflammasome activation in LPS/nigericin-treated mouse J774A.1 cells assessed as effect on […] in cell lysate pre-treated for 1 hr at 1 to 5 uM measured after 1 hr of stimulation by Western blot analysis; type: subcellular; settings: J774.A1, dose 1-5 µM, time 2.0 hrs
[12] = biological target: T1, Interferon-inducible protein AIM2 (Mus musculus) (UniProt Q91VJ1); test: Inhibition of AIM2 inflammasome activation in LPS-induced mouse […] cells infected with […] pre-treated for 1 hr at 1 to 5 uM measured after 1 hr of stimulation; settings: J774.A1, dose 1-5 µM, time 2.0 hrs
T1 sequence (whole entry): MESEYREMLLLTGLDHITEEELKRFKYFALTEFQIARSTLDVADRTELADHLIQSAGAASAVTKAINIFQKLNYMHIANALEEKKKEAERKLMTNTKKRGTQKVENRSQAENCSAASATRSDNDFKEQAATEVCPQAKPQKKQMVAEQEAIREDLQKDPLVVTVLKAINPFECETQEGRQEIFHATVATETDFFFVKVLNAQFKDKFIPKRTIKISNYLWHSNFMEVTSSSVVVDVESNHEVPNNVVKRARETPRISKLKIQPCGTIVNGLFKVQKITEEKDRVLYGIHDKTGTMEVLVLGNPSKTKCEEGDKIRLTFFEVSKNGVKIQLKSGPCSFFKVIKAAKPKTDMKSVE

[13] = biological target: NLR family CARD domain-containing protein 4 (Mus musculus) (UniProt Q3UP24); test: Inhibition of NLRC4 inflammasome activation in LPS-induced mouse […] cells infected with […] pre-treated for 1 hr at 1 to 5 uM measured after 1 hr of stimulation; settings: J774.A1, dose 1-5 µM, time 2.0 hrs
NLR family CARD domain-containing protein 4 (Mus musculus), sequence (Q3UP24 whole entry, the tested form may be a part): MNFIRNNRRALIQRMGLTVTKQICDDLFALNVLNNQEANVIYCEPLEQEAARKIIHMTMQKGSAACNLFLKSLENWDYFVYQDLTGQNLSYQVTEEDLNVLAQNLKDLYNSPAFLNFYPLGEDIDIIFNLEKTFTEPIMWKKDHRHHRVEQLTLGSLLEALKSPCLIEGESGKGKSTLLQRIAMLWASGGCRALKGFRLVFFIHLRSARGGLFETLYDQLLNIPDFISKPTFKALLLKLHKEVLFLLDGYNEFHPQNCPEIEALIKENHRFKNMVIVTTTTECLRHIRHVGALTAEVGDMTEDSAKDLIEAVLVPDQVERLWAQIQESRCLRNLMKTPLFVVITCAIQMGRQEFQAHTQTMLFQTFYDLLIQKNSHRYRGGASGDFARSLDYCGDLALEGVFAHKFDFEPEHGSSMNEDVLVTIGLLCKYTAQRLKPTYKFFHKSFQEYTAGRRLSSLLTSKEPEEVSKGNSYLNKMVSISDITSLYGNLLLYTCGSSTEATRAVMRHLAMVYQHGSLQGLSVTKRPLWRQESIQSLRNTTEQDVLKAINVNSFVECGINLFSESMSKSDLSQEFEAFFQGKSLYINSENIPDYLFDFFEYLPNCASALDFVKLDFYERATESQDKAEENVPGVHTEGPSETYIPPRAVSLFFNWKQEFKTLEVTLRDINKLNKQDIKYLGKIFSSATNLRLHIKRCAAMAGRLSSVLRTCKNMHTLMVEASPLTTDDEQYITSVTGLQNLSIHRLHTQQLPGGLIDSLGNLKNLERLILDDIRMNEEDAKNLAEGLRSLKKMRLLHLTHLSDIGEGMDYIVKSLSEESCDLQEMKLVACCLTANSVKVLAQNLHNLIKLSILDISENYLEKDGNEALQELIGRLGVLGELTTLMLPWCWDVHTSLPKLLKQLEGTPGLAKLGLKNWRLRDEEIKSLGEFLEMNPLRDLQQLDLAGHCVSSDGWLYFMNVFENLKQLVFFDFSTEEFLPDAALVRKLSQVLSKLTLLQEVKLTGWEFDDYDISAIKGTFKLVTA

J774.A1 [14] = test: Inhibition of reactive oxygen species generation in LPS/nigericin-induced mouse J774.A1 cells pre-treated for 1 hr at 1 to 5 uM measured after 1 hr of stimulation by DCFH-DA staining-based method relative to control; type: functional, cell-based; settings: dose 1-5 µM, time 2.0 hrs
J774.A1 [15] = test: Inhibition of reactive oxygen species generation in LPS/nigericin-induced mouse J774.A1 cells pre-treated for 1 hr at 1 to 5 uM measured after 1 hr of stimulation by fluorescence microplate-reader relative to control; type: functional, cell-based; settings: dose 1-5 µM, time 2.0 hrs
Mus musculus [16] = test: Antiinflammatory activity in po dosed LPS-induced sepsis C57BL/6 mouse model assessed as reduction in IL-1beta secretion in serum measured after 6 hrs by ELISA; type: functional, organism-based; settings: dose 25-50 mg/kg
Mus musculus [17] = test: Antiinflammatory activity in po dosed LPS-induced sepsis C57BL/6 mouse model assessed as reduction in IL-1beta secretion in peritonial fluid measured after 6 hrs by ELISA; type: functional, organism-based; settings: dose 25-50 mg/kg
Mus musculus [18] = test: Anti-colitis activity against DSS-induced colitis C57BL/6 mouse model assessed as reduction in colon length treated orally once daily for 14 days started from day 3 post DSS-challenge; type: functional, organism-based; settings: dose 25-50 mg/kg, time 14.0 day
Mus musculus [19] = test: Anti-colitis activity against DSS-induced colitis C57BL/6 mouse model assessed as reduction in fecal occult blood treated orally once daily for 14 days started from day 3 post DSS-challenge; type: functional, organism-based; settings: dose 25-50 mg/kg, time 14.0 day
Mus musculus [20] = test: Anti-colitis activity against DSS-induced colitis C57BL/6 mouse model assessed as reduction in IL-1 beta in colonic tissue treated orally once daily for 14 days started from day 3 post DSS-challenge by ELISA relative to control; type: functional, organism-based; settings: dose 25-50 mg/kg, time 14.0 day
[21] = Stability assessed as glutathione reactivity of compound incubated for 24 hrs; type: physicochemical
[22] = biological target: NACHT, LRR and PYD domains-containing protein 3 (Mus musculus) (UniProt Q8R4B8); test: Inhibition of NLRP3 inflammasome activation in LPS/nigericin-treated mouse J774A.1 cells assessed as effect on pro-caspase-1 pre-treated for 1 hr at 1 to 5 uM measured after 1 hr of stimulation by Western blot analysis; settings: J774.A1, dose 1-5 µM
J774.A1 [23] = test: Anti-pyroptosis activity against LPS/nigericin-induced mouse […] cells pre-treated for 1 hr at 1 to 5 uM measured after 1 hr of stimulation; type: functional, cell-based; settings: dose 1-5 µM
J774.A1 [24] = test: Inhibition of mitochondrial reactive oxygen species generation in LPS/nigericin-induced mouse J774.A1 cells pre-treated for 1 hr at 1 to 5 uM measured after 1 hr of stimulation by MitoSOX Red fluorescence microplate-reader relative to control; type: functional; settings: dose 1-5 µM, time 2.0 hrs
J774.A1 [25] = test: Inhibition of IL-1 beta release in LPS/nigericin-induced mouse J774.A1 cells pre-treated for 1 hr at 1 to 5 uM measured after 1 hr of stimulation by Western blot analysis; type: functional; settings: dose 1-5 µM, time 2.0 hrs
[26] = Solubility of compound; type: physicochemical

Q: Which IC50 [1] does the source give for `CCC(Oc1c(C)cc(/C=C/C(=O)c2ccc(SC)cc2)cc1C)C(=O)O` (stereo not given) here?
A: The IC50 was 31.7 µM.

Q: Which IC50 [1] does the source give for `Cc1ccc(-c2ccc(C(=O)/C=C/c3cc(C)c(O)c(C)c3)cc2)s1` here?
A: The IC50 was > 40 µM.

Q: With `C=CC(=O)Nc1ccc(C(=O)/C=C/c2cc(C)c(O)c(C)c2)cc1` as the compound, how does the IC50 [1] read?
A: Its IC50 is 1.3 µM.

Q: What about the Activity (J774.A1 [2]) of the same compound?
A: Its Activity is “Non-Toxic”.

Q: And the Activity (J774.A1 [3])?
A: Its Activity is “Toxic”.

Q: What about the CC50 at 24 h [4] of the same compound?
A: Its CC50 at 24 h is 156 µM.

Q: What about the “Selectivity Index” value [5] of the same compound?
A: The value was 119.7.

Q: What about the inhibition [6] of the same compound?
A: Its inhibition is “Dose-Dependent Effect”.

Q: What about the inhibition [7] of the same compound?
A: The inhibition was “Dose-Dependent Effect”.

Q: And the inhibition [8]?
A: The inhibition was “Dose-Dependent Effect”.

Q: And the inhibition [9]?
A: The inhibition was “inactive”.

Q: And the inhibition [10]?
A: Its inhibition is “inactive”.

Q: What about the inhibition [11] of the same compound?
A: Its inhibition is “inactive”.

Q: What about the inhibition [12] of the same compound?
A: The inhibition was “inactive”.

Q: And the inhibition [13]?
A: The inhibition was “inactive”.

Q: What about the inhibition (J774.A1 [14]) of the same compound?
A: Its inhibition is “Active”.

Q: And the inhibition (J774.A1 [15])?
A: Its inhibition is “Active”.

Q: And the Activity (Mus musculus [16])?
A: The Activity was “Dose-Dependent Effect”.

Q: What about the Activity (Mus musculus [17]) of the same compound?
A: The Activity was “Dose-Dependent Effect”.

Q: And the Activity (Mus musculus [18])?
A: Its Activity is “Active”.

Q: And the Activity (Mus musculus [19])?
A: Its Activity is “Active”.

Q: And the Activity (Mus musculus [20])?
A: The Activity was “Active”.

Q: What about the Stabilty [21] of the same compound?
A: Its Stabilty is “Stable”.

Q: What about the Activity [22] of the same compound?
A: Its Activity is “inactive”.

Q: What about the Activity (J774.A1 [23]) of the same compound?
A: Its Activity is “Active”.

Q: What about the inhibition (J774.A1 [24]) of the same compound?
A: The inhibition was “Active”.

Q: And the inhibition (J774.A1 [25])?
A: Its inhibition is “Active”.

Q: With `COc1c(C)cc(/C=C/C(=O)c2ccc(N(C)C)cc2)cc1C` as the compound, how does the IC50 [1] read?
A: Its IC50 is 25.9 µM.

Q: For `Cc1cc(/C=C/C(=O)c2ccc([S+](C)[O-])cc2)cc(C)c1O` (stereo not given), which IC50 [1] is on record?
A: The IC50 was 10.6 µM.

Q: Which IC50 [1] does the source give for `COc1c(C)cc(/C=C/C(=O)c2ccc(NC(=O)Nc3ccc(C)cc3)cc2)cc1C` here?
A: The IC50 was 38.7 µM.

Q: With `COc1c(C)cc(/C=C/C(=O)c2ccc(NC(=O)Nc3ccc(F)cc3)cc2)cc1C` as the compound, how does the IC50 [1] read?
A: The IC50 was 23.5 µM.

Q: With `CSc1ccc(C(=O)/C=C/c2cc(C)c(O)c(C)c2)cc1` as the compound, how does the IC50 [1] read?
A: Its IC50 is 2.1 µM.

Q: What about the CC50 at 24 h [4] of the same compound?
A: Its CC50 at 24 h is 86.2 µM.

Q: And the “Selectivity Index” value [5]?
A: The value was 41.

Q: What about the Stabilty [21] of the same compound?
A: Its Stabilty is “Stable”.

Q: With `CSc1ccc(C(=O)/C=C/c2cc(C)c(OCC(=O)O)c(C)c2)cc1` as the compound, how does the IC50 [1] read?
A: The IC50 was > 40 µM.

Q: For `CS(=O)(=O)CCC#N` [DAPANSUTRILE], which IC50 [1] is on record?
A: The IC50 was 0.1 µM.

Q: With `Cc1cc(/C=C/C(=O)c2ccc(F)cc2)cc(C)c1O` as the compound, how does the IC50 [1] read?
A: The IC50 was 12.3 µM.

Q: With `Cc1cc(/C=C/C(=O)c2ccc(S(C)(=O)=O)cc2)cc(C)c1O` as the compound, how does the IC50 [1] read?
A: The IC50 was 12.9 µM.

Q: With `CSc1ccc(C(=O)/C=C/c2cc(C)c(OCCO)c(C)c2)cc1` as the compound, how does the IC50 [1] read?
A: Its IC50 is 12.7 µM.

Q: Which IC50 [1] does the source give for `Cc1cc(/C=C/C(=O)c2ccc(Cl)cc2)cc(C)c1O` here?
A: The IC50 was 3.9 µM.

Q: With `CCCNC(=O)Nc1ccc(C(=O)/C=C/c2cc(C)c(OC)c(C)c2)cc1` as the compound, how does the IC50 [1] read?
A: The IC50 was 9.6 µM.

Q: For `COc1c(C)cc(/C=C/C(=O)c2ccc(SC)cc2)cc1C`, which IC50 [1] is on record?
A: The IC50 was 49.5 µM.

Q: Which IC50 [1] does the source give for `CSc1ccc(C(=O)/C=C/c2cc(C)c(O)cc2C)cc1` here?
A: The IC50 was 5.3 µM.

Q: Which IC50 [1] does the source give for `CSc1ccc(C(=O)/C=C/c2ccc(O)cc2F)cc1` here?
A: Its IC50 is 12.7 µM.

Q: Which IC50 [1] does the source give for `Cc1cc(/C=C/C(=O)c2ccc(-c3ccccc3)cc2)cc(C)c1O` here?
A: The IC50 was 29.4 µM.

Q: Which IC50 [1] does the source give for `CSc1ccc(C(=O)/C=C/c2ccc(O)c(O)c2)cc1` here?
A: Its IC50 is 1.6 µM.

Q: What about the solubility [26] of the same compound?
A: Its solubility is “Insoluble”.

Q: With `C=C(COc1c(C)cc(/C=C/C(=O)c2ccc(SC)cc2)cc1C)C(=O)O` as the compound, how does the IC50 [1] read?
A: The IC50 was > 40 µM.

Q: Which IC50 [1] does the source give for `CSc1ccc(C(=O)/C=C/c2ccc(O)c(Cl)c2)cc1` here?
A: The IC50 was 9.7 µM.
